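Method: 48-hour compound exposure of cells in 96-well plates, five concentrations, linear interpolation of endpoints. At the GI50, growth is halved. TGI is the concentration that stops growth completely.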
Key:
Test in all cases: NCI-60 cell line screen, 48 h
[1] = system: BT-549 breast
[2] = system: CAKI-1 renal
[3] = system: KM12 colon
[4] = system: MALME-3M melanoma
[5] = system: OVCAR-4 ovarian
[6] = system: SF-268 CNS
[7] = system: SK-MEL-5 melanoma
[8] = system: T-47D breast
[9] = system: TK-10 renal
[10] = system: UO-31 renal

## COC12C(COC(N)=O)C3=C(C(=O)C(C)=C(N)C3=O)N1CC1C2N1C (stereo not given)
[1]
  TGI: 28.3 µM
[2]
  TGI: 22 µM
[3]
  TGI: 43.7 µM
[4]
  TGI: 18.7 µM
[5]
  TGI: 28.1 µM
[6]
  TGI: 47 µM
[7]
  TGI: 9.19 µM
[8]
  TGI: 182 µM
[9]
  TGI: 69.5 µM
[10]
  TGI: 32.6 µM

## Oc1ccc2ccccc2c1N=Nc1ccc(Br)cc1
[1]
  TGI: > 100 µM
[2]
  TGI: > 100 µM
[3]
  TGI: > 100 µM
[4]
  TGI: > 100 µM
[5]
  TGI: 96.3 µM
[6]
  TGI: > 100 µM
[7]
  TGI: > 100 µM
[8]
  TGI: > 100 µM
[9]
  TGI: > 100 µM
[10]
  TGI: > 100 µM

## Cn1c(Nc2ccc(C(F)(F)F)cc2)nc2cc(Oc3ccnc(-c4ncc(C(F)(F)F)[nH]4)c3)ccc21
[1]
  GI50: 0.155 µM
  TGI: 12.2 µM
[2]
  GI50: 0.0609 µM
  TGI: 15.4 µM
[3]
  GI50: 1.3 µM
  TGI: 12.5 µM
[4]
  GI50: 0.0284 µM
  TGI: 0.154 µM
[5]
  GI50: 1.21 µM
  TGI: 14.4 µM
[6]
  GI50: 0.966 µM
  TGI: 14.5 µM
[7]
  GI50: 0.34 µM
  TGI: 4.96 µM
[8]
  GI50: 2.3 µM
  TGI: 17.4 µM
[9]
  GI50: 2.91 µM
  TGI: 16.2 µM
[10]
  GI50: 0.239 µM
  TGI: 10.2 µM

## CCc1ccc(/C=C/c2ccc(O)c3ncccc23)[n+](C)c1
[1]
  GI50: 15.1 µM
  TGI: > 100 µM
[2]
  GI50: 39.2 µM
  TGI: > 100 µM
[3]
  GI50: 0.512 µM
  TGI: > 100 µM
[4]
  GI50: 13.7 µM
  TGI: > 100 µM
[5]
  GI50: 5.6 µM
  TGI: > 100 µM
[6]
  GI50: 0.749 µM
  TGI: > 100 µM
[7]
  GI50: 3.55 µM
  TGI: > 100 µM
[8]
  GI50: 1.66 µM
  TGI: > 100 µM
[9]
  GI50: > 100 µM
  TGI: > 100 µM
[10]
  GI50: 7.4 µM
  TGI: > 100 µM

## CN(C)c1ncnc2c1ncn2CCn1cnc2c(N(C)C)ncnc21
[1]
  TGI: > 100 µM
[2]
  TGI: > 100 µM
[3]
  TGI: > 100 µM
[4]
  TGI: > 100 µM
[5]
  TGI: > 100 µM
[6]
  TGI: > 100 µM
[7]
  TGI: > 100 µM
[8]
  TGI: > 100 µM
[9]
  TGI: > 100 µM
[10]
  TGI: > 100 µM

## S=c1[nH]c2c(Cl)c(Cl)c(Cl)c(Cl)c2[nH]1
[1]
  TGI: 52.4 µM
[2]
  TGI: 64.7 µM
[3]
  TGI: 33.8 µM
[4]
  TGI: 38.5 µM
[5]
  TGI: 22.6 µM
[6]
  TGI: 42.7 µM
[7]
  TGI: 37.2 µM
[8]
  TGI: > 100 µM
[9]
  TGI: 55.4 µM
[10]
  TGI: 43.2 µM

## C[C@H]1CN[C@@H]2[C@@H](C)[C@H]3[C@@H](C[C@H]4[C@@H]5CC[C@H]6C[C@@H](N)CC[C@]6(C)[C@H]5CC[C@]34C)O[C@@]2(O)C1
[1]
  TGI: 7.24 µM
[2]
  TGI: 6.43 µM
[3]
  TGI: 11.1 µM
[4]
  TGI: 3.23 µM
[5]
  TGI: 17.5 µM
[6]
  TGI: 7.15 µM
[7]
  TGI: 10.4 µM
[8]
  TGI: 4.51 µM
[9]
  TGI: 11.7 µM
[10]
  TGI: 5.79 µM

## COc1ccc(-c2cc(/C=C/C(=O)c3ccc(OC)c(OC)c3)[nH]n2)cc1
[1]
  GI50: 1.68 µM
  TGI: 3.53 µM
[2]
  GI50: 1.55 µM
  TGI: 3.52 µM
[3]
  GI50: 1.38 µM
  TGI: 3.11 µM
[4]
  GI50: 1.62 µM
  TGI: 3.45 µM
[5]
  GI50: 0.509 µM
  TGI: 3.87 µM
[6]
  GI50: 1.94 µM
  TGI: 4.83 µM
[7]
  GI50: 1.77 µM
  TGI: 3.72 µM
[8]
  GI50: 1.6 µM
  TGI: 5.15 µM
[9]
  GI50: 2.11 µM
  TGI: 4.31 µM
[10]
  GI50: 1.17 µM
  TGI: 2.44 µM

From PubChem BioAssay (NCI)
